Source: patent US8663701B2, “Compositions containing ultra-micronized palmitoyl-ethanolamide” (priority 2009, dated 2014)

What was measured:
[1] = Concentration of PEA in serum after single oral administration; format: in vivo, Beagle dogs; details: 15 mg/Kg oral, fasting
[2] = system: 2-arachidonoylglycerol (2-AG); assay: Concentration of 2-AG in serum after single oral administration of PEA; format: in vivo, Beagle dogs; details: for Concentration in serum, 2AG: 15 mg/Kg oral, fasting; for Increase of 2-AG in blood compared to the basal levels: administration per os
From the text: Dose measurements in blood have been carried out of 2-arachidonoyl-glycerol (2-AG), an endocannabinoid of great importance in the modulation of the activation of cells capable of expressing the cannabinoid CB2 receptor; this is the case of many cells belonging to the immune system as the microglia.

[3] = system: TNF-alpha, NGF, NF-kB, IL-1 alpha; assay: Sciatic nerve ligation (CCI), spinal parameters at day 10; format: in vivo, mouse; details: for IL-1alpha / NGF / TNF-alpha: spinal area, day 10 after ligation (CCI), per os once per day
From the text: After sciatic nerve ligation—CCI (carried out as described by Costa et al., Pain 2008; 139:541-550), a series of altered spinal parameters have been assessed in the mouse, following peripheral damage, and related to the activation of microglial cells induced by the peripheral chronic distress. In particular, TNF-alpha, NGF, NF-kB according to the method described by Costa et al. (see supra), and IL-1 alpha according to the method described by Fiorentino et al., 2008; 58(10):3100-3109 have been measured.
A 0.5% solution in carboxymethyl cellulose has been used as a vehicle.
The measurements of the parameters indicated, above have been carried out at day 10 from the sciatic nerve ligation, after sacrifice of the test animal and sampling of the spinal area.

[4] = system: cutaneous reaction induced by Ascaris suum; assay: Cutaneous reaction induced by Asc S1 antigen in dogs sensitized to Ascaris suum; format: in vivo, Beagle dog; details: for Inhibition on the cutaneous reaction induced by Ascaris suum: 10 mg/Kg oral; for Inhibition of the cutaneous reaction: between 1 and 4 hours after treatment
Experimental: Beagle dog spontaneously sensitized to Ascaris suum were used.
A 2% solution of Evans Blue in saline was administered endovenously (0.4 mL/Kg) 30 minutes before the intradermal injection of Asc S1 antigen, so as to be able to visualize the dermal reaction area.
The dermal reaction area was measured 10 minutes after the injection of Asc S1 antigen.

[5] = system: protein NGF, protein TNF-alpha; assay: Carrageenan-induced granuloma; format: in vivo, rat; details: for Expression of protein NGF in the dorsal root ganglia / Expression of protein NGF in the granulomatous tissue / Expression of protein TNF-alpha in the dorsal root ganglia: 96 hours, 10 mg/Kg oral every 12 hours for 3 days
Experimental: The pharmacological model of granuloma induced, in the rat, by the introduction in the subcutaneous tissue of carrageenan-soaked sponge has been used. The model is described in De Filippis et al., J Cell Mol Med. 2009; 13(6):1086-1095.
The administrations were carried out at time 0 (immediately before the introduction of the sponges), and every 12 hours for 3 consecutive days. The unit doses administered were 10 mg/Kg.
The biochemical parameters relative to pro-algogenic mediators were detected, after sacrifice of the animal occurred after 96 hours from the introduction of the sponges, both in the granulomatous tissue (expression of the protein NGF), and at the level of the dorsal root ganglia (RDG) (expression of the protein TNF-alpha and the protein NGF).

[6] = system: TNF-alpha, tissue mast cells; assay: LPS-induced acute intestinal inflammation; format: in vivo, mouse; details: 18 hours after LPS
Experimental: (§1) An acute inflammation was induced in the animal by means of intra-peritoneal injection of LPS (lipopolysaccharide): the animals were sacrificed after 18 hours from the LPS administration. Instead, a chronic inflammation at the colon level was induced by administering the animal with DNBS (2,4-Dinitrobenzene sulfonic acid): in this case, the animals were sacrificed after 96 hours from the DNBS administration.
(§2) The level of TNF-alpha and the percent variation in the number of mast cells were assessed on intestinal tissue.

[7] = system: TNF-alpha, tissue mast cells; assay: DNBS-induced chronic intestinal inflammation; format: in vivo, mouse; details: 96 hours after DNBS
Experimental: as §1, §2

[8] = system: IL-1 beta, NO2; assay: Beta-amyloid-induced neuroinflammation; format: in vivo, C57BL/6 mice; details: for Effect on the levels of the biological parameters considered: IL-1 beta and NO2 in hippocampus; for Hippocampal levels of NO2 / Hippocampal tissue levels of IL-1 beta (with immunofluorescence method) (count of cells immunopositive to THE-1 beta): per os daily for 8 days after beta-amyloid inoculation
Experimental: C57BL/6 mice with age ranging between 3 and 5 months have been used, divided in 3 different groups (20 animals per group). […] The administrations were carried out daily for 8 days successive to the inoculation of the beta-amyloid. The third group was administered with the vehicle alone. After sacrifice of the animal, IL-1 beta and NO2 dose level was measured in the hippocampal homogenate via an immunofluorescence method.
The experimental method described by Esposito et al., Br J Pharmacol. 2007; 151:1272-1279 has been used.

[9] = system: neuropathic pain at the lower limbs; assay: Neuropathic pain in Multiple Sclerosis patients, VAS scale; format: in vivo; details: for VAS after the treatment of 60 days (average value): tablets
Experimental: The pain intensity was measured with a VAS (Visual Analogue Scale) scale both before and at the end of the treatment with palmitoylethanolamide.

[10] = Particle size profile, laser particle size analyzer (LALLS); format: physicochemical; details: ultra-micronization
From the text: In order to measure the particle size, a laser particle size analyzer (Malvern Mastersizer) with LALLS (Low Angle Laser Light Scattering) technique using the Fraunhofer theory of computation is employed.

[11] = Modulated Differential Scanning Calorimetry (MDSC); format: physicochemical; details: room temperature; from MDSC spectrum
From the text: The MDSC technique is a known one, the principles and applications of which are described, for example, in S. R. Rabel et al., Journal of Pharmaceutical and Biomedical Analysis, 21 (1999) 339-345. The tests described in the present patent application have been carried out with an equipment TA DSC Q200.
Such differential calorimetry measurement performed with the MDSC technique have shown an outstanding difference between the initial product and the ultra-micronized product, which difference consists in the appearance, in the product subjected to ultra-micronization, of a positive peak of exothermal transition at a temperature between 101° C. and 103° C., which is distinctive of structures with a high energy content; in the original product, such peak results, on the contrary, to be negative (see FIGS. 3 and 4). The positive exothermal transition peak has to be interpreted as the signal of the heat developed by the transformation of the higher energy content form (formed during the ultra-micronization process) into the native crystalline form with lower energy content.
The net energy transition which characterizes the positive peak at 101-103° C. of FIG. 4 is symptomatic of such stability. Differently, progressive transitions at lower temperatures should have to be noticed.

[12] = Time 0 (immediately before administration)
[13] = Time 0 hours (before administration)
[14] = listed as micronized PEA, 10 mg/kg
[15] = vehicle 100, listed as Micronized PEA
[16] = listed as ultra-micronized PEA, 10 mg/kg
[17] = vehicle 100, listed as Ultra-micronized PEA

Compound: CCCCCCCCCCCCCCCC(=O)NCCO [Micronized palmitoylethanolamide, palmitoylethanolamide, reference compound]
- concentration at 0 h ([1]; Beagle, dog, serum, po, 15 mg/kg, Time 0 (immediately before administration)): 12.4 nM
- concentration at 1 h ([1]; Beagle, dog, serum, po, 15 mg/kg, Time 1 h): 22.2 nM
- concentration at 2 h ([1]; Beagle, dog, serum, po, 15 mg/kg, Time 2 h): 15.6 nM
- concentration at 3 h ([1]; Beagle, dog, serum, po, 15 mg/kg, Time 3 h): 13.4 nM
- Concentration in serum, 2AG [2, 12]: 1.0 pmol/mL
- Concentration in serum, 2AG ([2]; Time 1 h, 15 mg/kg): 1.2 pmol/mL
- Concentration in serum, 2AG ([2]; Time 2 h, 15 mg/kg): 1.6 pmol/mL
- Concentration in serum, 2AG ([2]; Time 3 h, 15 mg/kg): 1.7 pmol/mL
- Increase of 2-AG in blood compared to the basal levels [2]: about 70%
- IL-1alpha ([3]; listed as micronized PEA): 25.80 ± 2.0 pg/mg prot
- NGF ([3]; listed as micronized PEA): 38.6 ± 3.0 pg/mg prot
- TNF-alpha ([3]; listed as micronized PEA): 60.4 ± 3.0 pg/mg prot
- Inhibition on the cutaneous reaction induced by Ascaris suum [4, 13]: 0%
- Inhibition on the cutaneous reaction induced by Ascaris suum ([4]; Time 1 hours, 10 mg/kg): 9.4 ± 2.6%
- Inhibition on the cutaneous reaction induced by Ascaris suum ([4]; Time 2 hours, 10 mg/kg): 9.3 ± 4.7%
- Inhibition on the cutaneous reaction induced by Ascaris suum ([4]; Time 4 hours, 10 mg/kg): −2.6 ± 4.2%
- Inhibition on the cutaneous reaction induced by Ascaris suum ([4]; Time 8 hours, 10 mg/kg): −0.8 ± 2.0%
- Inhibition on the cutaneous reaction induced by Ascaris suum ([4]; Time 24 hours, 10 mg/kg): −0.2 ± 2.0%
- Inhibition of the cutaneous reaction ([4]; listed as micronized PEA): almost null
- Expression of protein NGF in the dorsal root ganglia [5, 14]: 50.8 ± 3.0 OD = mm^2
- Expression of protein NGF in the granulomatous tissue [5, 14]: 14.6 ± 2.1 OD = mm^2
- Expression of protein TNF-alpha in the dorsal root ganglia [5, 14]: 151.1 ± 9.6 OD = mm^2
- Expression of protein TNF-alpha ([6]; listed as Micronized PEA): 128.3 ± 10.8 OD = mm^2
- Number of tissue mast cells, percent of vehicle [6, 15]: 86%
- Expression of protein TNF-alpha ([7]; listed as Micronized PEA): 134.8 ± 8.4 OD = mm^2
- Tissue mast cell number, percent of vehicle [7, 15]: 74%
- Effect on the levels of the biological parameters considered ([8]; listed as micronized PEA): only a marginal activity
- Hippocampal levels of NO2 ([8]; listed as micronized PEA): 8.2 ± 2.1 μM/μg of proteins from hippocampal homogeneate
- Hippocampal tissue levels of IL-1 beta (with immunofluorescence method) (count of cells immunopositive to THE-1 beta) ([8]; listed as micronized PEA): 86.3 ± 7.9
- VAS after the treatment of 60 days (average value) ([9]; 600 mg per day for 60 days): 4.22
- VAS before the treatment (average value) [9]: 6.52

Compound: CCCCCCCCCCCCCCCC(=O)NCCO [Ultra-micronized palmitoylethanolamide, palmitoylethanolamide]
- Particle size <0.6 microns [10]: 2.0%
- Particle size <1 microns [10]: 14.7%
- Particle size <2 microns [10]: 59.6%
- Particle size <6 microns [10]: 99.9%
- Particle size <10 microns [10]: 100%
- Particle size >14 microns [10]: Absent
- Stability of the high energy crystalline form [11]: substantially stable at room temperature
- Concentration in serum, PEA [1, 12]: 12.4 nM
- Concentration in serum, PEA ([1]; Time 1 h, 15 mg/kg): 22.4 nM
- Concentration in serum, PEA ([1]; Time 2 h, 15 mg/kg): 16.2 nM
- Concentration in serum, PEA ([1]; Time 3 h, 15 mg/kg): 14.1 nM
- Concentration in serum, 2AG [2, 12]: 1.0 pmol/mL
- Concentration in serum, 2AG ([2]; Time 1 h, 15 mg/kg): 3.6 pmol/mL
- Concentration in serum, 2AG ([2]; Time 2 h, 15 mg/kg): 4.2 pmol/mL
- Concentration in serum, 2AG ([2]; Time 3 h, 15 mg/kg): 4.7 pmol/mL
- Increase of 2-AG in blood compared to the basal levels [2]: higher than 400%
- Effect on all the biochemical parameters under investigation ([3]; CCI, day 10): substantial normalization
- IL-1alpha ([3]; listed as ultra-micronized PEA): 2.50 ± 0.02 pg/mg prot
- NGF ([3]; listed as ultra-micronized PEA): 10.2 ± 2.0 pg/mg prot
- TNF-alpha ([3]; listed as ultra-micronized PEA): 44.1 ± 2.8 pg/mg prot
- Inhibition on the cutaneous reaction induced by Ascaris suum [4, 13]: 0%
- Inhibition on the cutaneous reaction induced by Ascaris suum ([4]; Time 1 hours, 10 mg/kg): 20.8 ± 5.4%
- Inhibition on the cutaneous reaction induced by Ascaris suum ([4]; Time 2 hours, 10 mg/kg): 32.4 ± 4.7%
- Inhibition on the cutaneous reaction induced by Ascaris suum ([4]; Time 4 hours, 10 mg/kg): 26.0 ± 4.9%
- Inhibition on the cutaneous reaction induced by Ascaris suum ([4]; Time 8 hours, 10 mg/kg): 15.1 ± 9.6%
- Inhibition on the cutaneous reaction induced by Ascaris suum ([4]; Time 24 hours, 10 mg/kg): 4.5 ± 6.7%
- Inhibition of the cutaneous reaction ([4]; listed as ultra-micronized PEA): above 20%
- Expression of protein NGF in the dorsal root ganglia [5]: 43.8 ± 3.1 OD = mm^2
- Expression of protein NGF in the granulomatous tissue [5, 16]: 6.1 ± 1.6 OD = mm^2
- Expression of protein TNF-alpha in the dorsal root ganglia [5, 16]: 96.6 ± 10.4 OD = mm^2
- Decrease of NGF levels ([5]; compared to the micronized PEA): much more marked decrease
- Expression of protein TNF-alpha ([6]; listed as Ultra-micronized PEA): 75.6 ± 12.3 OD = mm^2
- Number of tissue mast cells, percent of vehicle [6, 17]: 41%
- Expression of protein TNF-alpha ([7]; listed as Ultra-micronized PEA): 62.9 ± 11.8 OD = mm^2
- Tissue mast cell number, percent of vehicle [7, 17]: 26%
- Effect on the levels of the biological parameters considered ([8]; listed as ultra-micronized PEA): high decrease
- Hippocampal levels of NO2 ([8]; listed as ultra-micronized PEA): 3.1 ± 0.6 μM/μg of proteins from hippocampal homogeneate
- Hippocampal tissue levels of IL-1 beta (with immunofluorescence method) (count of cells immunopositive to THE-1 beta) ([8]; listed as ultra-micronized PEA): 21.8 ± 5.4
- VAS after the treatment of 60 days (average value) ([9]; 600 mg per day for 60 days): 2.85
- Effect on pain (VAS) ([9]; 600 mg per day for 60 days, Wilcoxon p=0.001): marked decrease of the pain
- VAS before the treatment (average value) [9]: 6.52
